Reference: patent publication US20250381110A1, “SKIN CARE COMPOSITION AND METHOD OF USING THE SAME” (THE PROCTER & GAMBLE COMPANY, priority 2024, published 2025)
Structures can show the parent of a compound that is named as a salt. Where two headings read alike, the source gives them in different places.

System: p62-dependent mitophagy
Assay: Luciferase-p62 assay (Fluc-p62 clearance) in mouse embryonic fibroblasts
Format: cell-based
Description: To identify p62-dependent materials which increase mitophagy, a Luciferase-p62 Assay was established. This method provides an approach to measure the ability of a material to modulate p62-dependent mitophagy by using an inducible firefly luciferase-p62 (Fluc-p62) reporter cell system. In this assay, p62 levels are driven by doxycycline treatment. After levels increased, expression of Fluc-p62 is turned off by removal of doxycycline, materials are then added and assessed for how they affect clearance of Fluc-p62 protein, which is proportionate to cellular mitophagy rates (Kelly et al.). The negative control is doxycycline induced Luc-p62 in the absence of compound or bioactive material treatment and in the presence of vehicle (DMSO).
Test materials including bioactive materials were screened in mouse embryonic fibroblasts (MEFs, Harada et al.) expressing the TET-inducible p62-fluc construct as previously described (Brown et al.). […] Gibson assembly was used to insert firefly luciferase (Fluc) and p62 into the pCW57.1 backbone. Fluc, p62, and pCW57.1 were polymerase chain reaction (PCR) amplified using pfu polymerase (Life technologies) and Gibson assembly primers with 20 base pair (bp) overhangs. PCR products were separated by agarose gel electrophoreses, and fragments excised and purified before use in DNA assembly reaction with NEBuilder HiFi DNA Assembly kit (New England Biolabs). After the assembly, the reaction mix was transformed into NEB3040 Stable Competent Escherichia coli (New England Biolabs). After 24 hours growth at 31 degrees Celsius the plasmid was extracted using QIAprep Spin Miniprep kit (Qiagen). The plasmid was sequenced to confirm correct insertion of Fluc-p62. To generate MEFs stably expressing doxycycline inducible Fluc-p62, HEK293FT cells were transfected with Fluc-p62-pCW57.1 and the ViraPower Packaging Mix (Invitrogen) to produce lentivirus. MEFs were transduced with the obtained lentiviral stock following followed by selection with 1 microgram per milliliter puromycin.Fluc-p62expressing MEFs were maintained in DMEM supplemented with 10 percent fetal bovine serum (FBS), 100 units per milliliter penicillin/streptomycin, and 2 millimolar L-glutamine in a humidified atmosphere containing 5 percent carbon dioxide at 37 degrees Celsius. Cells were plated into white 96 well plates (2,000 cells per well with 100 microliters media) and allowed to settle for 24 hours. […] Subsequently, cells were treated with test materials for 48 hours in normal growth medium and analysed using ONE-Glo™+Tox Luciferase Reporter and Cell Viability Assay (Promega) by following the manufacturer's protocol.
Test compositions and control compositions were prepared as described above in the Luciferase-p62 assay (Method 3) and tested accordingly. The compounds used in this example, as examples of bioactive materials, were from the APExBIO DiscoveryProbe™ Natural Product Library Plus (Houston, TX) and evaluated at equivalent concentrations (10 μM).
Data are additionally calculated as percentage of activity relative to rapamycin, a benchmark control compound tested in the same experiment.

[1] = Luciferase-p62 assay, mouse embryonic fibroblasts (MEFs), compounds at 10 μM
[2] = percentage of Luciferase-p62 clearance relative to baseline (mean luminescence in the absence of doxycycline induction), MEFs, 10 μM
[3] = percentage of activity relative to rapamycin tested in the same experiment at the same concentration, MEFs, 10 μM

SMILES	Mean Luminescence [1]	% Activity over baseline [2]	% Activity relative to Rapamycin [3]	Mean Luminescence	% Activity over baseline (10 µM)	% Activity relative to Rapamycin (10 µM)
C[C@]12C[C@H](O)[C@H]3[C@@H](CCC4=CC(=O)CC[C@@]43C)[C@@H]1CC[C@@H]2C(=O)CO [Corticosterone]	870.00	46.23%	83.30%	–	–	–
CN(CC(=O)O)C(=N)N.O [Creatine monohydrate]	901.68	44.28%	79.77%	–	–	–
N=c1ccn2c(n1)O[C@H]1[C@H](O)[C@@H](CO)O[C@H]12 [Cyclocytidine HCl]	914.30	43.50%	78.37%	–	–	–
CC1=C2C[C@H]3[C@@H](CC=C4C[C@@H](O)CC[C@@]43C)[C@@H]2CC[C@]12O[C@@H]1C[C@H](C)CN[C@H]1[C@H]2C [Cyclopamine]	471.92	–	–	–	–	–
Nc1ccn([C@@H]2O[C@H](CO)[C@@H](O)[C@H]2O)c(=O)n1 [Cytidine]	841.40	48.00%	86.49%	–	–	–
N[C@H](Cc1ccccc1)C(=O)O [D-Phenylalanine]	763.78	52.80%	95.13%	–	–	–
O=C1CC[C@H](C(=O)O)N1 [D-Pyroglutamic acid]	938.93	41.97%	75.63%	–	–	–
CCN(CC)c1ccc(/C=N/NC(=O)c2ccc(O)cc2)cc1 [DY131]	878.41	45.71%	82.36%	–	–	–
Cc1nc(Nc2ncc(C(=O)Nc3c(C)cccc3Cl)s2)cc(N2CCN(CCO)CC2)n1 [Dasatinib Monohydrate]	410.49	74.63%	134.47%	–	–	–
Oc1ccc(OC2CCCCO2)cc1 (stereo not shown) [Deoxyarbutin]	653.14	59.64%	107.45%	–	–	–
C[C@H](CCC(=O)O)[C@H]1CC[C@H]2[C@@H]3CC[C@@H]4C[C@H](O)CC[C@]4(C)[C@H]3C[C@H](O)[C@]12C [Deoxycholic acid sodium salt]	591.12	63.47%	114.35%	–	–	–
CC(=O)OCC(=O)[C@@]1(O)[C@H](C)C[C@H]2[C@@H]3CCC4=CC(=O)C=C[C@]4(C)[C@@]3(F)[C@@H](O)C[C@@]21C [Dexamethasone acetate]	681.22	57.90%	104.32%	–	–	–
CN1CCN(c2cc3c(cc2F)c(=O)c(C(=O)O)cn3-c2ccc(F)cc2)CC1 [Difloxacin HCl]	980.30	39.42%	71.02%	–	–	–
COC(=O)/C=C/C(=O)OC [Dimethyl Fumarate]	786.79	51.38%	92.57%	–	–	–
C[C@@H]1CC[C@@]2(OC1)O[C@H]1C[C@H]3[C@@H]4CC=C5C[C@@H](O)CC[C@]5(C)[C@H]4CC[C@]3(C)[C@H]1[C@@H]2C [Diosgenin]	903.89	44.14%	79.53%	–	–	–
Cl.NCCc1ccc(O)c(O)c1 [Dopamine HCl]	–	–	–	995.96	38.45%	69.28%
CCCCc1oc2ccc(NS(C)(=O)=O)cc2c1C(=O)c1ccc(OCCCN(CCCC)CCCC)cc1 [Dronedarone]	550.43	65.98%	118.89%	–	–	–
Clc1ccc(COC(Cn2ccnc2)c2ccc(Cl)cc2Cl)cc1 (stereo not shown) [Econazole nitrate]	359.76	77.77%	140.12%	–	–	–

SMILES	Mean Luminescence [1]	% Activity over baseline [2]	% Activity relative to Rapamycin [3]	Mean Luminescence	% Activity over baseline (10 µM)	% Activity relative to Rapamycin (10 µM)
O=C1C[C@@H](c2ccc(O)c(O)c2)Oc2cc(O)cc(O)c21 [Eriodictyol]	852.50	47.31%	85.25%	–	–	–
OC[C@@H](O)[C@@H](O)CO [Erythritol]	696.09	56.98%	102.67%	–	–	–
C[C@]12CC[C@@H]3c4ccc(OC(=O)c5ccccc5)cc4CC[C@H]3[C@@H]1CC[C@@H]2O [Estradiol Benzoate]	970.65	40.01%	72.09%	–	–	–
CCCCC(=O)O[C@H]1CC[C@H]2[C@@H]3CCc4cc(O)ccc4[C@H]3CC[C@]12C [Estradiol valerate]	924.65	42.86%	77.22%	–	–	–
C[C@]12CC[C@@H]3c4ccc(O)cc4CC[C@H]3[C@@H]1CC[C@@H]2O [Estradiol]	768.64	52.50%	94.59%	–	–	–
C[C@]12CC[C@@H]3c4ccc(O)cc4CC[C@H]3[C@@H]1C[C@@H](O)[C@@H]2O [Estriol]	784.74	51.50%	92.80%	–	–	–
C[C@]12CC[C@@H]3c4ccc(O)cc4CC[C@H]3[C@@H]1CCC2=O [Estrone]	670.65	58.55%	105.50%	–	–	–
C#C[C@]1(O)CC[C@H]2[C@@H]3CCC4=CC(=O)CC[C@]4(C)[C@H]3CC[C@@]21C [Ethisterone]	996.32	38.43%	69.24%	–	–	–
CCc1c(Cl)c(O)c(Cl)c(O)c1C(=O)O[C@H]1[C@H](O)[C@H](OC)[C@H](OC/C2=C\C=C\C[C@H](O)/C(C)=C/[C@H](CC)[C@@H](O[C@@H]3OC(C)(C)[C@@H](OC(=O)C(C)C)[C@H](O)[C@@H]3O)/C(C)=C/C(C)=C/C[C@@H]([C@@H](C)O)OC2=O)O[C@@H]1C [Fidaxomicin]	262.87	83.75%	150.90%	–	–	–
O=c1[nH]cc(F)c(=O)[nH]1 [Fluorouracil (Adrucil)]	848.60	47.56%	85.68%	–	–	–
C=C[C@@]1(C)CC(=O)[C@]2(O)[C@@]3(C)[C@@H](O)CCC(C)(C)[C@@H]3[C@H](O)[C@H](OC(C)=O)[C@@]2(C)O1 [Forskolin]	911.32	43.68%	78.70%	–	–	–
CNC[C@H](O)[C@@H](O)[C@H](O)[C@H](O)CO.CNC[C@H](O)[C@@H](O)[C@H](O)[C@H](O)CO.C[C@@H](O[C@H]1OCCN(Cc2nn(P(=O)(O)O)c(=O)[nH]2)[C@H]1c1ccc(F)cc1)c1cc(C(F)(F)F)cc(C(F)(F)F)c1 [Fosaprepitant dimeglumine salt]	756.54	53.24%	95.93%	–	–	–
CC1=C2C(=O)O[C@@H](c3ccoc3)[C@]2(C)CCC1 [Fraxinellone]	972.50	39.90%	71.89%	–	–	–
O=C(O)c1cc(O)c(O)c(O)c1 [Gallic acid]	898.71	44.46%	80.10%	–	–	–
COc1cc2ncnc(Nc3ccc(F)c(Cl)c3)c2cc1OCCCN1CCOCC1 [Gefitinib (ZD1839)]	960.31	40.65%	73.25%	–	–	–
C[C@@H]1C(=O)O[C@H]2C[C@@]34[C@H]5C[C@@H](C(C)(C)C)[C@]36[C@@H](OC(=O)[C@@H]6O)O[C@@]4(C(=O)O5)[C@]21O [Ginkgolide A]	977.84	39.57%	71.29%	–	–	–
CC(C)=CCC[C@](C)(O[C@@H]1O[C@H](CO)[C@@H](O)[C@H](O)[C@H]1O)[C@H]1CC[C@]2(C)[C@@H]1[C@H](O)C[C@@H]1[C@@]3(C)CC[C@H](O)C(C)(C)[C@@H]3[C@@H](O[C@@H]3O[C@H](CO)[C@@H](O)[C@H](O)[C@H]3O)C[C@]12C [Ginsenoside Rg1]	947.81	41.42%	74.64%	–	–	–
